From PubChem BioAssay (NCI) come the findings set out here.

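Five concentrations, 48 hours, 96-well plates. The concentration for 50% growth inhibition is given as GI50. TGI marks complete inhibition of growth.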 *1 amine or outer side, *2 acyl side, *3 side chain or, on linkers, in order; H or OH if unused. Where a SMILES comes first, the peptide text is derived from it. [ ]: non-standard residue; d: D form. The star is where a group is joined. ξ: configuration not given here. NMeY = CN[C@@H](Cc1ccc(O)cc1)C(=O)O; Ethylenediamine = C(CN[*:2])N[*:1]; ξNMeL = CNC(CC(C)C)C(=O)O; Cbz = O=C(OCc1ccccc1)*; Lac = C[C@H](O)C(=O)O; ξA = CC(N)C(=O)O Some results are limits rather than exact numbers.

Test systems include SK-MEL-2 melanoma; UO-31 renal; OVCAR-3 ovarian; SF-539 CNS; K-562 leukemia; NCI/ADR-RES ovarian; CCRF-CEM leukemia; SF-295 CNS; HCT-116 colon; OVCAR-4 ovarian; SF-268 CNS; HL-60(TB) leukemia; HT29 colon; NCI-H23 lung; KM12 colon.
Common to all, as to experiment: inhibition of tumour cell growth, NCI panel, 48 h

Regarding `NC(=O)CN1CC(C2=C(O)CN(CC(N)=O)C2=O)=CC1=O`, the TGI in the test with SK-MEL-2 melanoma, in the test with UO-31 renal, in the test with OVCAR-3 ovarian, in the test with SF-539 CNS, with K-562 leukemia and in the test with NCI/ADR-RES ovarian was more than 100 µM throughout. The TGI in the test with CCRF-CEM leukemia, in the test with SF-295 CNS, in the test with HCT-116 colon, with OVCAR-4 ovarian, with SF-268 CNS and with HL-60(TB) leukemia was more than 100 µM throughout. Besides, the TGI in the test with HT29 colon, in the test with NCI-H23 lung and in the test on KM12 colon was more than 100 µM each time.
`O=C(Nn1c(-c2cccs2)nc2ccc(I)cc2c1=O)c1ccccc1`: the GI50 was 24 µM with SK-MEL-2 melanoma; 30.1 µM in the test on SF-539 CNS; 43.8 µM with K-562 leukemia; 38.5 µM with CCRF-CEM leukemia; 33.7 µM with HL-60(TB) leukemia. For the same compound, the TGI with SK-MEL-2 melanoma is 69.4 µM; in the test with UO-31 renal, 93.3 µM; in the test on OVCAR-3 ovarian, 39.3 µM; in the test on SF-539 CNS, more than 100 µM; with K-562 leukemia it was more than 100 µM; in the test with NCI/ADR-RES ovarian, more than 100 µM. Also, the TGI in the test with CCRF-CEM leukemia was more than 100 µM; with SF-295 CNS, 91.7 µM; in the test with HCT-116 colon, more than 100 µM; in the test on OVCAR-4 ovarian, 80.6 µM; with SF-268 CNS, more than 100 µM; with HL-60(TB) leukemia, 99.7 µM. Also, the values for the TGI in the test on HT29 colon, with NCI-H23 lung and with KM12 colon were 90.6 µM, 67.4 µM and 81.2 µM, respectively.
Consider `CC(=O)N1c2ccccc2C2=NN(C)C(=N)SC21` (stereo not given), for which the TGI in the test with SK-MEL-2 melanoma, with UO-31 renal, with OVCAR-3 ovarian, in the test with SF-539 CNS, with K-562 leukemia and with NCI/ADR-RES ovarian was more than 100 µM throughout. For the same compound, the TGI in the test with CCRF-CEM leukemia, in the test on SF-295 CNS, in the test on HCT-116 colon, in the test with OVCAR-4 ovarian, in the test with SF-268 CNS and with HL-60(TB) leukemia was more than 100 µM in each case. Besides, the TGI with HT29 colon, in the test on NCI-H23 lung and in the test on KM12 colon was more than 100 µM throughout.
In the case of `COc1cccc2c1C1(O)C2CCCCCCCCCC12OCCCO2` (stereo not given), the TGI in the test on SK-MEL-2 melanoma was more than 73.2 µM; with UO-31 renal, more than 100 µM; in the test with OVCAR-3 ovarian, more than 81 µM; in the test with SF-539 CNS, more than 100 µM; in the test with K-562 leukemia, more than 100 µM; with NCI/ADR-RES ovarian it was more than 100 µM. Besides, the TGI was more than 92.4 µM in the test with CCRF-CEM leukemia; more than 86.9 µM with SF-295 CNS; more than 100 µM with HCT-116 colon; more than 100 µM in the test with OVCAR-4 ovarian; more than 100 µM in the test with SF-268 CNS; more than 47.8 µM with HL-60(TB) leukemia. In addition, the TGI with HT29 colon was more than 59.2 µM; in the test with NCI-H23 lung it was more than 100 µM; in the test with KM12 colon, more than 100 µM.
Take `CC1=NN(c2nc(N)nc(CSc3cc(Cl)c(C)cc3S(N)(=O)=O)n2)C(C)(C)C1`: the TGI with SK-MEL-2 melanoma was more than 10 µM; in the test with UO-31 renal it was 0.953 µM; in the test with OVCAR-3 ovarian it was more than 10 µM; in the test on SF-539 CNS, more than 10 µM; in the test on K-562 leukemia it was more than 10 µM; in the test with NCI/ADR-RES ovarian, more than 10 µM. In addition, the TGI in the test with CCRF-CEM leukemia, with SF-295 CNS, in the test with HCT-116 colon, in the test with OVCAR-4 ovarian, with SF-268 CNS and in the test with HL-60(TB) leukemia was more than 10 µM each time. Besides, the TGI with HT29 colon, in the test with NCI-H23 lung and with KM12 colon was more than 10 µM throughout.
For `CNCCN[C@@H]1c2cc3c(cc2[C@@H](c2cc(OC)c(O)c(OC)c2)[C@H]2C(=O)OC[C@@H]21)OCO3`, the TGI with SK-MEL-2 melanoma was 1.79 µM; in the test on UO-31 renal, 4.96 µM; in the test with OVCAR-3 ovarian it was 4.17 µM; with SF-539 CNS, 0.167 µM; with K-562 leukemia it was more than 100 µM; with NCI/ADR-RES ovarian it was more than 100 µM. The TGI in the test on CCRF-CEM leukemia was 0.117 µM; in the test with SF-295 CNS, 1.07 µM; with HCT-116 colon, 5.27 µM; with OVCAR-4 ovarian, more than 100 µM; in the test with SF-268 CNS, more than 25.6 µM; in the test on HL-60(TB) leukemia it was 0.0483 µM. Further, the TGI with HT29 colon turned out to be 1.89 µM; with NCI-H23 lung, 1.54 µM; with KM12 colon it was 4.47 µM.
As for `COc1ccc(/C=C2\C[C@H]3[C@@H]4CC=C5C[C@@H](OC(C)=O)CC[C@]5(C)[C@H]4CC[C@]3(C)\C2=N\O)cc1OC`, the TGI is more than 100 µM with SK-MEL-2 melanoma; 91.6 µM in the test with UO-31 renal; more than 100 µM with OVCAR-3 ovarian; more than 100 µM in the test on SF-539 CNS; more than 100 µM in the test on K-562 leukemia; more than 100 µM in the test on NCI/ADR-RES ovarian. In addition, the TGI with CCRF-CEM leukemia, with SF-295 CNS, in the test with HCT-116 colon, in the test with OVCAR-4 ovarian, in the test with SF-268 CNS and in the test on HL-60(TB) leukemia was more than 100 µM in each case. The TGI in the test with HT29 colon, in the test on NCI-H23 lung and in the test with KM12 colon was more than 100 µM throughout.
Take `Cc1cc(C)c2c(n1)S(=O)(=O)N(CCCN1CCN(c3cccc(Cl)c3)CC1)/C(=C(\O)c1ccccc1)C2=O`: the TGI in the test on SK-MEL-2 melanoma is more than 100 µM; with UO-31 renal it was 74 µM; in the test on OVCAR-3 ovarian, more than 100 µM; with SF-539 CNS, more than 100 µM; with K-562 leukemia, more than 100 µM; with NCI/ADR-RES ovarian, more than 100 µM. Further, the TGI in the test with CCRF-CEM leukemia is more than 100 µM; with SF-295 CNS, 95.9 µM; in the test on HCT-116 colon, 92.5 µM; in the test on OVCAR-4 ovarian it was 88.8 µM; in the test on SF-268 CNS it was more than 100 µM; with HL-60(TB) leukemia it was 71 µM. Besides, the TGI is more than 100 µM with HT29 colon, 89.1 µM in the test on NCI-H23 lung and more than 100 µM in the test with KM12 colon.
On to `COc1ccc(C[C@@H](C(=O)NCCNC(=O)C(CC(C)C)N(C)C(=O)[C@@H]2CCCN2C(=O)[C@H](C)O)N(C)C(=O)[C@@H]2CCCN2C(=O)[C@H](CC(C)C)NC(=O)C(C)NC(=O)OCc2ccccc2)cc1` (stereo not given in full) (Cbz-[ξA]LP[NMeY](Me)-{Ethylenediamine-ξNMeL-Pro-Lac}), for which the TGI in the test with SK-MEL-2 melanoma, in the test on UO-31 renal, in the test with OVCAR-3 ovarian, with SF-539 CNS, with K-562 leukemia and with NCI/ADR-RES ovarian was more than 100 µM throughout. Also, the TGI in the test with CCRF-CEM leukemia, in the test with SF-295 CNS, in the test on HCT-116 colon, in the test on OVCAR-4 ovarian, in the test on SF-268 CNS and in the test on HL-60(TB) leukemia was more than 100 µM each time. The TGI in the test on HT29 colon, with NCI-H23 lung and in the test on KM12 colon was more than 100 µM in each case.
